Results published in US3951746A, “Antibiotics and process for their manufacture” (Schering Corporation, priority 1975, dated 1976).
Counter-ions that a name gives are not always drawn. Like-named read-outs stand apart in the source and are kept apart here.

Columns and labels:
[1] = tested on: Candida albicans 401; experiment: MIC in vitro (Table VIII); conditions: for MIC: pH 7.4, read-out: Minimum Inhibitory Concentration - MIC
[2] = tested on: Staphylococcus aureus ATCC 6538P; experiment: disc plate assay (microbiological assay); type: cell-based
[3] = tested on: Aerobacter aerogenes 3; experiment: MIC in vitro (Table VIII)
[4] = tested on: Proteus mirabilis MeF; experiment: MIC in vitro (Table VIII); conditions: for MIC: pH 7.4, read-out: Minimum Inhibitory Concentration - MIC
[5] = tested on: Candida albicans 411; experiment: MIC in vitro (Table VIII); conditions: for MIC: pH 7.4, read-out: Minimum Inhibitory Concentration - MIC
[6] = tested on: Aerobacter aerogenes 4; experiment: MIC in vitro (Table VIII); conditions: for MIC: pH 7.4, read-out: Minimum Inhibitory Concentration - MIC
[7] = tested on: Escherichia coli Sc; experiment: MIC in vitro (Table VIII); conditions: for MIC: pH 7.4, read-out: Minimum Inhibitory Concentration - MIC
[8] = tested on: Pseudomonas aeruginosa 8689; experiment: MIC in vitro (Table VIII); conditions: for MIC: pH 7.4, read-out: Minimum Inhibitory Concentration - MIC
[9] = tested on: Pseudomonas aeruginosa Miller; experiment: MIC in vitro (Table VIII); conditions: for MIC: pH 7.4, read-out: Minimum Inhibitory Concentration - MIC
[10] = tested on: Escherichia coli 5; experiment: MIC in vitro (Table VIII); conditions: for MIC: pH 7.4, read-out: Minimum Inhibitory Concentration - MIC
[11] = tested on: Candida albicans 406; experiment: MIC in vitro (Table VIII); conditions: for MIC: pH 7.4, read-out: Minimum Inhibitory Concentration - MIC
[12] = tested on: Streptococcus pyogenes C; experiment: MIC in vitro (Table VIII); conditions: for MIC: pH 7.4, read-out: Minimum Inhibitory Concentration - MIC
[13] = tested on: Salmonella paratyphi B2; experiment: MIC in vitro (Table VIII); conditions: for MIC: pH 7.4, read-out: Minimum Inhibitory Concentration - MIC
[14] = tested on: Saccharomyces cerevisiae; experiment: MIC in vitro (Table VIII); conditions: for MIC: Saccharomyces cerevisiae, pH 7.4, read-out: Minimum Inhibitory Concentration - MIC
[15] = tested on: Salmonella paratyphi B1; experiment: MIC in vitro (Table VIII); conditions: for MIC: pH 7.4, read-out: Minimum Inhibitory Concentration - MIC
[16] = tested on: Klebsiella pneumoniae 17 KR; experiment: MIC in vitro (Table VIII); conditions: for MIC: pH 7.4, read-out: Minimum Inhibitory Concentration - MIC
[17] = tested on: Escherichia coli 19; experiment: MIC in vitro (Table VIII); conditions: for MIC: pH 7.4, read-out: Minimum Inhibitory Concentration - MIC
[18] = tested on: Proteus vulgaris 2; experiment: MIC in vitro (Table VIII); conditions: for MIC: pH 7.4, read-out: Minimum Inhibitory Concentration - MIC
[19] = tested on: Klebsiella pneumoniae Ad KR; experiment: MIC in vitro (Table VIII); conditions: for MIC: pH 7.4, read-out: Minimum Inhibitory Concentration - MIC
[20] = tested on: Streptococcus pyogenes 6; experiment: MIC in vitro (Table VIII); conditions: for MIC: pH 7.4, read-out: Minimum Inhibitory Concentration - MIC
[21] = tested on: kanamycin resistant bacteria; type: cell-based
[22] = tested on: bacteria; type: cell-based
[23] = physchem
[24] = tested on: yeast; type: cell-based
[25] = tested on: gram-positive and gram-negative organisms; design: species or system mice; conditions: mouse
[26] = tested on: gram positive and gram-negative bacteria; type: cell-based
[27] = tested on: Staphylococcus aureus 209P; experiment: MIC in vitro (Table VIII); conditions: 24 hours; yeast beef broth (pH 7.4)
[28] = tested on: Escherichia coli 10536; design: species or system mice; conditions: mouse, in vivo, sc
[29] = tested on: Staphylococcus aureus Gray; design: species or system mice; conditions: mouse, in vivo, sc
[30] = tested on: Pseudomonas aeruginosa 8689; design: species or system mice; conditions: mouse, in vivo, sc
[31] = tested on: Streptococcus pyogenes C; design: species or system mice; conditions: mouse, in vivo, sc
[32] = 24 hours, yeast beef broth (pH 7.4)
[33] = 24 hours, yeast beef broth (pH 7.4), kanamycin-resistant

CN[C@@H]1[C@@H](O)[C@@H](O[C@@H]2[C@@H](O)[C@H](O[C@H]3OC(C(C)N)=CC[C@H]3N)[C@@H](N)C[C@H]2N)OC[C@]1(C)O (stereo partly shown) [Verdamicin I Sulfate]
MIC ([1]; 24 h): > 10 µg/mL | MIC ([1]; 48 h): > 10 µg/mL | assay potency in the gentamicin assay ([2]; gentamicin assay): 674 µg/mg | MIC ([3]; 24 h, pH 7.4, read-out: Minimum Inhibitory Concentration - MIC): 0.3 µg/mL | MIC ([4]; 24 h): 0.3 µg/mL | MIC ([4]; 48 h): 0.3 µg/mL | MIC ([5]; 24 h): > 10 µg/mL | MIC ([5]; 48 h): > 10 µg/mL | MIC ([6]; 24 h): 0.3 µg/mL | MIC ([6]; 48 h): 0.3 µg/mL | MIC ([7]; 24 h): 0.3 µg/mL | MIC ([7]; 48 h): 0.75 µg/mL | MIC ([8]; 24 h): 0.075 µg/mL | MIC ([8]; 48 h): 0.3 µg/mL | MIC ([9]; 24 h): 0.75 µg/mL | MIC ([9]; 48 h): 0.75 µg/mL | MIC ([10]; 24 h): 0.3 µg/mL | MIC ([10]; 48 h): 0.75 µg/mL | MIC ([11]; 24 h): > 10 µg/mL | MIC ([11]; 48 h): > 10 µg/mL | MIC ([12]; 24 h): 0.75 µg/mL | MIC ([12]; 48 h): 3 µg/mL | MIC ([13]; 24 h): 0.3 µg/mL | MIC ([13]; 48 h): 0.3 µg/mL | MIC ([14]; 24 h): > 10 µg/mL | MIC ([14]; 48 h): > 10 µg/mL | MIC ([15]; 24 h): 0.3 µg/mL | MIC ([15]; 48 h): 0.75 µg/mL | MIC ([16]; 24 h): 0.3 µg/mL | MIC ([16]; 48 h): 0.3 µg/mL | MIC ([17]; 24 h): 0.3 µg/mL | MIC ([17]; 48 h): 0.3 µg/mL | MIC ([18]; 24 h): 0.3 µg/mL | MIC ([18]; 48 h): 0.3 µg/mL | MIC ([19]; 24 h): 0.3 µg/mL | MIC ([19]; 48 h): 0.3 µg/mL | MIC ([20]; 24 h): 0.3 µg/mL | MIC ([20]; 48 h): 0.75 µg/mL

CN[C@@H]1[C@@H](O)[C@@H](O[C@@H]2[C@@H](O)[C@H](O[C@H]3OC(C(C)N)=CC[C@H]3N)[C@@H](N)C[C@H]2N)OC[C@]1(C)O (stereo partly shown) [Verdamicin I]
activity against kanamycin resistant bacteria [21]: active against kanamycin resistant bacteria | assay potency in the gentamicin assay [2]: 1000 µg/mg | dose response curve [2]: parallel to that of gentamicin | cross resistance with gentamicin [22]: appears to be cross resistant with gentamicin | pKa [23]: 8.1 | in vitro activity against yeast [24]: does not exhibit any substantial in vitro activity against yeast | antibacterial activity in vivo [25]: potent antibacterial agent | antibacterial activity in vitro [26]: broad spectrum of antibacterial activity

Gentamicin Sulfate [reference compound]
Minimum Inhibitory Concentration - MIC [1, 32]: > 50 µg/mL | Minimum Inhibitory Concentration - MIC [3, 32]: 0.6 µg/mL | Minimum Inhibitory Concentration - MIC [4, 32]: 0.3 µg/mL | Minimum Inhibitory Concentration - MIC [5, 32]: > 50 µg/mL | Minimum Inhibitory Concentration - MIC [6, 32]: 0.3 µg/mL | Minimum Inhibitory Concentration - MIC [7, 32]: 0.75 µg/mL | Minimum Inhibitory Concentration - MIC [8, 32]: 0.3 µg/mL | Minimum Inhibitory Concentration - MIC [9, 32]: 0.5 µg/mL | Minimum Inhibitory Concentration - MIC [10, 32]: 0.3 µg/mL | Minimum Inhibitory Concentration - MIC [11, 32]: > 50 µg/mL | Minimum Inhibitory Concentration - MIC [12, 32]: 3.0 µg/mL | Minimum Inhibitory Concentration - MIC [13, 32]: 0.5 µg/mL | Minimum Inhibitory Concentration - MIC [14, 32]: > 50 µg/mL | Minimum Inhibitory Concentration - MIC [15, 32]: 1.0 µg/mL | Minimum Inhibitory Concentration - MIC [16, 33]: 0.3 µg/mL | Minimum Inhibitory Concentration - MIC [17, 32]: 0.3 µg/mL | Minimum Inhibitory Concentration - MIC [18, 32]: 0.3 µg/mL | Minimum Inhibitory Concentration - MIC [27]: 0.1 µg/mL | Minimum Inhibitory Concentration - MIC [19, 33]: 0.3 µg/mL | Minimum Inhibitory Concentration - MIC [20, 32]: 1.0 µg/mL

Gentamicin
PD50 [28]: 1.7 mg/kg | PD50 [29]: 2.4 mg/kg | PD50 [30]: 1.7 mg/kg | PD50 [31]: 5.0 mg/kg
